What was measured:
Assay in all cases: KINOMEscan competition binding
Conditions in all cases: compound 10.0 µM
[1] = biological target: AAK1 (human) (UniProt Q2M2I8)
[2] = biological target: ABL2 (human) (UniProt P42684)
[3] = biological target: ACVR2A (human) (UniProt P27037)
[4] = biological target: AKT1 (human) (UniProt P31749)
[5] = biological target: AURKB (human) (UniProt Q96GD4)
[6] = biological target: BLK (human) (UniProt P51451)
[7] = biological target: CAMK1G (human) (UniProt Q96NX5)
[8] = biological target: CLK2 (human) (UniProt P49760)
[9] = biological target: CSNK1E (human) (UniProt P49674)
[10] = biological target: DMPK (human) (UniProt Q09013)
[11] = biological target: DYRK1B (human) (UniProt Q9Y463)
[12] = biological target: EPHA4 (human) (UniProt P54764)
[13] = biological target: EPHA7 (human) (UniProt Q15375)
[14] = biological target: EPHB3 (human) (UniProt P54753)
[15] = biological target: ERBB3 (human) (UniProt P21860)
[16] = biological target: FYN (human) (UniProt P06241)
[17] = biological target: MAP2K2 (human) (UniProt P36507)
[18] = biological target: MAP4K1 (human) (UniProt Q92918)
[19] = biological target: MAP4K2 (human) (UniProt Q12851)
[20] = biological target: MARK2 (human) (UniProt Q7KZI7)
[21] = biological target: MYO3B (human) (UniProt Q8WXR4)
[22] = biological target: NTRK1 (human) (UniProt P04629)
[23] = biological target: NTRK3 (human) (UniProt Q16288)
[24] = biological target: PDGFRB (human) (UniProt P09619)
[25] = biological target: PTK2 (human) (UniProt Q05397)
[26] = biological target: PTK6 (human) (UniProt Q13882)
[27] = biological target: RIOK2 (human) (UniProt Q9BVS4)
[28] = biological target: SIK3 (human) (UniProt Q9Y2K2)
[29] = biological target: SRPK2 (human) (UniProt P78362)
[30] = biological target: SRPK3 (human) (UniProt Q9UPE1)
[31] = biological target: TEK (human) (UniProt Q02763)
[32] = biological target: TSSK1B (human) (UniProt Q9BXA7)
[33] = biological target: TYK2 JH2 pseudokinase (human) (UniProt P29597)
[34] = biological target: YSK4 (human) (UniProt Q56UN5)

Chain of SRPK3 (human) (Q9UPE1 whole entry, looked up): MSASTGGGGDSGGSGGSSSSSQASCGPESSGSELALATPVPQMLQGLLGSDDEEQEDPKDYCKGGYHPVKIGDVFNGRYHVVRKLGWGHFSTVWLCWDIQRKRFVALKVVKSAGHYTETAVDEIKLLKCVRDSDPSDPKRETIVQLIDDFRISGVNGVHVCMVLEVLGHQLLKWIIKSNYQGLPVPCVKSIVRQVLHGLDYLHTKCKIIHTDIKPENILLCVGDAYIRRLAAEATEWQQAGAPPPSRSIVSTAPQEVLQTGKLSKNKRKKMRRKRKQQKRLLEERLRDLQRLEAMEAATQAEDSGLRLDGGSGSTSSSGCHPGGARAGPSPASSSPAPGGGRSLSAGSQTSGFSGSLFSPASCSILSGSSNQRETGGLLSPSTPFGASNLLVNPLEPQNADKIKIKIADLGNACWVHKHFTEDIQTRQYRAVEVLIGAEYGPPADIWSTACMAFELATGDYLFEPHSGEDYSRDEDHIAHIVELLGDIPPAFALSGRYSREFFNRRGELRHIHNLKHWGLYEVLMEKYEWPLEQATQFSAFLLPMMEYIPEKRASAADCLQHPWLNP
Chain of CSNK1E (human) (P49674 whole entry, looked up): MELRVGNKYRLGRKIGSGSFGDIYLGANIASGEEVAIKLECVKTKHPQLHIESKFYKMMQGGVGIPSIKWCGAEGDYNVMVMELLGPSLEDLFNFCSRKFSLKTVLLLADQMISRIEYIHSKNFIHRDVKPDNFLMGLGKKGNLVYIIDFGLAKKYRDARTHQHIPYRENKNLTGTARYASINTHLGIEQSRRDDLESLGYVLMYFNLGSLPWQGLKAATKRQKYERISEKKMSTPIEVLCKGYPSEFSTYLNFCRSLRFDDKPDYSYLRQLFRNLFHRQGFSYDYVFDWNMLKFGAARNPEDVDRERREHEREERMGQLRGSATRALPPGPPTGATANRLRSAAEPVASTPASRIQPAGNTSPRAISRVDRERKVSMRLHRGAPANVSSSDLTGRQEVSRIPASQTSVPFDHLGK
Chain of MAP4K1 (human) (Q92918 whole entry, looked up): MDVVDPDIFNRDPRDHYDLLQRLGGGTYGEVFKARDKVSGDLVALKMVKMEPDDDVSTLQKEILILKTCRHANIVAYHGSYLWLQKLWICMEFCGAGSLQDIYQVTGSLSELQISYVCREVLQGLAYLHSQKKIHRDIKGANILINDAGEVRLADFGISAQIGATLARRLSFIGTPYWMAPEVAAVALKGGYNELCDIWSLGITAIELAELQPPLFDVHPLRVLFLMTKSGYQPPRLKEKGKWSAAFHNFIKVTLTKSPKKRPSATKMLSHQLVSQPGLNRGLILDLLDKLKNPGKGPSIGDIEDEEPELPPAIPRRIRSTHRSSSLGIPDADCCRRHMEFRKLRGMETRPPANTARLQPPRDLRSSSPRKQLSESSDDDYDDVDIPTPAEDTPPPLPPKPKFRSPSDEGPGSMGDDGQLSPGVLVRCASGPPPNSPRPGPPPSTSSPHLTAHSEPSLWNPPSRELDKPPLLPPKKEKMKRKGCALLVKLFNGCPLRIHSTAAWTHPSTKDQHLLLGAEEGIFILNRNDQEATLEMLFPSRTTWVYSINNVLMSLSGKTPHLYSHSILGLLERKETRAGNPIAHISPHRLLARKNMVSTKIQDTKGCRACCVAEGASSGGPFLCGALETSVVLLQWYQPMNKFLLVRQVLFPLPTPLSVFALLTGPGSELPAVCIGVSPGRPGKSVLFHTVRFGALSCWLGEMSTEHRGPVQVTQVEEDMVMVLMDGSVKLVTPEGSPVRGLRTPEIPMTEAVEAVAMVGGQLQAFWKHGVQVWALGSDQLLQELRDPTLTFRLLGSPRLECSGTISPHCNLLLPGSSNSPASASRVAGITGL
Chain of NTRK3 (human) (Q16288 whole entry, looked up): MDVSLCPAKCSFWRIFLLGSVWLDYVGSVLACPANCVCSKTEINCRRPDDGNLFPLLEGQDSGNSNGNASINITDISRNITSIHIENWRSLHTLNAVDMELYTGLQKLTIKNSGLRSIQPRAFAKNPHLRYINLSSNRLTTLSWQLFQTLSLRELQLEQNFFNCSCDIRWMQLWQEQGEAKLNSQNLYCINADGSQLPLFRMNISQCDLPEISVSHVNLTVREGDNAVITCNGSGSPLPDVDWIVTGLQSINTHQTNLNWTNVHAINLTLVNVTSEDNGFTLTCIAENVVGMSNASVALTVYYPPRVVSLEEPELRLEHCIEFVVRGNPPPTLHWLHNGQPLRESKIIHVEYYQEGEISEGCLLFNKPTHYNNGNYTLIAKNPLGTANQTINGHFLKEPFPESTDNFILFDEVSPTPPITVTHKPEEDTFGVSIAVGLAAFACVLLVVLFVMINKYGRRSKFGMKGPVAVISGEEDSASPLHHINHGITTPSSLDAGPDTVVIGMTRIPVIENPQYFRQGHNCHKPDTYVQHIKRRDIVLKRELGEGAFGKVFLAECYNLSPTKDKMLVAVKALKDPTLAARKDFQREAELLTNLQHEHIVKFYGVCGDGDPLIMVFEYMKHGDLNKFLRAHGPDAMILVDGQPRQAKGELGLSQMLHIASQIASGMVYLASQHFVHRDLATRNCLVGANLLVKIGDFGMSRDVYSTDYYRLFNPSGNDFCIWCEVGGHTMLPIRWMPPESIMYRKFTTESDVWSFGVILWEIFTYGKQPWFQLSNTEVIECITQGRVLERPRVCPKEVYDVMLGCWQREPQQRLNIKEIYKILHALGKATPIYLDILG
Chain of PTK2 (human) (Q05397 whole entry, looked up): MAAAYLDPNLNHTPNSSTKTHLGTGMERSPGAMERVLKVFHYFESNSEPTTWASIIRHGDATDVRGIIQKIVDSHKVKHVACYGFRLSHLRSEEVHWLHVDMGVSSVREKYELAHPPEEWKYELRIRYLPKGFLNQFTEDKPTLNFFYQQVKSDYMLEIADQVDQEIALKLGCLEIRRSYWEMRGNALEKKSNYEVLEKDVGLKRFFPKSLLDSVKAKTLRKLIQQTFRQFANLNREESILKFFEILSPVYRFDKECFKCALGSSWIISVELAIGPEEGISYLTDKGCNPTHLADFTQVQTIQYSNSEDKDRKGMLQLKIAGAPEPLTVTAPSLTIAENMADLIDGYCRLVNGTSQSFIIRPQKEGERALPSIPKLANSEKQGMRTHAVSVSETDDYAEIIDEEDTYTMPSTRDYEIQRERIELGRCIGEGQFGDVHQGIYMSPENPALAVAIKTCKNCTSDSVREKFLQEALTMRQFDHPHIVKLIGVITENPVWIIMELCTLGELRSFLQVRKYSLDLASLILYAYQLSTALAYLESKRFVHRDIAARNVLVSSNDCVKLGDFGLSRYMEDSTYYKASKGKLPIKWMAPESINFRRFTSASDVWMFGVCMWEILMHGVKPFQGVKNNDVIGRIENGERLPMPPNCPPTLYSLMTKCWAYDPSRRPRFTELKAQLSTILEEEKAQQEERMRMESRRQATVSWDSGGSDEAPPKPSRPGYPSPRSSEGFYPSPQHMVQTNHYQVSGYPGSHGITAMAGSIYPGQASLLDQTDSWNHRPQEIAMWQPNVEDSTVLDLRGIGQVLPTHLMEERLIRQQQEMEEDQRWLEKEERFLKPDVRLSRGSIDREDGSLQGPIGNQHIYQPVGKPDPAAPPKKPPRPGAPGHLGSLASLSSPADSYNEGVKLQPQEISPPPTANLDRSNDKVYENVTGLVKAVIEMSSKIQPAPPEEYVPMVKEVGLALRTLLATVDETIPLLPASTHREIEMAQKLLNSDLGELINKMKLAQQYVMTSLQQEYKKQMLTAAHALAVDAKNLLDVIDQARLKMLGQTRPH
Chain of BLK (human) (P51451 whole entry, looked up): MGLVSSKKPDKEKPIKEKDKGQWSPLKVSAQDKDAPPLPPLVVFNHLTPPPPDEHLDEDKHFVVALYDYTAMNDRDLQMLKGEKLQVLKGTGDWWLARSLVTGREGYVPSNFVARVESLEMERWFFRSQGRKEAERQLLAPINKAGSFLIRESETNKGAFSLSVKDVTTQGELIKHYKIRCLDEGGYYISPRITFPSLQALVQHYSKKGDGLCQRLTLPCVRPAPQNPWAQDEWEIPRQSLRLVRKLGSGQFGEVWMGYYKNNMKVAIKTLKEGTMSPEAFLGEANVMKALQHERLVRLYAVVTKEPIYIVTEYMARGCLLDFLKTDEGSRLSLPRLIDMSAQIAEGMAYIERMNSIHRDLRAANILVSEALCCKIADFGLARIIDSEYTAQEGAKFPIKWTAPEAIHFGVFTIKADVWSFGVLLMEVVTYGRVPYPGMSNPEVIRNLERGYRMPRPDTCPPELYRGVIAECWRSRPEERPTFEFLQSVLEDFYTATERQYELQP
Chain of CAMK1G (human) (Q96NX5 whole entry, looked up): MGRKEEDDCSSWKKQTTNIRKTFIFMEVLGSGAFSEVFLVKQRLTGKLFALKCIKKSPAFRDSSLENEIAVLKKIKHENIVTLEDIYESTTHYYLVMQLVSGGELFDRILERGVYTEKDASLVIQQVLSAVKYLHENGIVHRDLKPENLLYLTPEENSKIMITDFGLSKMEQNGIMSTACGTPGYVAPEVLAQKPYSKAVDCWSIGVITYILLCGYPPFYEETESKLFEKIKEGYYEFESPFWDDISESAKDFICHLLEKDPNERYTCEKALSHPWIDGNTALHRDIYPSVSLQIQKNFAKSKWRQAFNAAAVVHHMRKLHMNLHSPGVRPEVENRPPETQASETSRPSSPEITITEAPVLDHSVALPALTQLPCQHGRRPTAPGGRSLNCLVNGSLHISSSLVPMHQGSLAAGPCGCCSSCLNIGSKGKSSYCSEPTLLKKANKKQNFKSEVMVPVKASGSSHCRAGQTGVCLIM
Chain of AURKB (human) (Q96GD4 whole entry, looked up): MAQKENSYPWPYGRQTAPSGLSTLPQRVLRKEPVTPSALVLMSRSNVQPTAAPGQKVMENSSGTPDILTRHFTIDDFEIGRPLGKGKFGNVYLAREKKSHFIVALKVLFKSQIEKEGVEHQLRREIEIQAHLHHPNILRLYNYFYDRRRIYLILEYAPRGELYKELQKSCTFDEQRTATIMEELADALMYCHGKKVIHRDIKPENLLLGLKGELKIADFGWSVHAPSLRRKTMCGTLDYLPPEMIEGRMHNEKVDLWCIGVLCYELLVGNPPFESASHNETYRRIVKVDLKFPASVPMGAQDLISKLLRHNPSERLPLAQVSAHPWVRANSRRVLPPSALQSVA

`COc1cc(N2CCN(C)CC2)ccc1Nc1ncc2c(n1)N(C)c1ccccc1C(=O)N2C` gave a kinase still bound, per cent of control [1] of 100%, a kinase still bound, per cent of control [2] of 100% and a kinase still bound, per cent of control [3] of 100%. It also gave a kinase still bound, per cent of control [4] of 100%, a kinase still bound, per cent of control [5] of 100% and a kinase still bound, per cent of control [6] of 100%. For the same compound, the kinase still bound, per cent of control [7] was 100%, the kinase still bound, per cent of control [8] was 100% and the kinase still bound, per cent of control [9] was 100%. The kinase still bound, per cent of control [10] was 100%, the kinase still bound, per cent of control [11] was 100% and the kinase still bound, per cent of control [12] was 100%. The kinase still bound, per cent of control [13] was 100%, the kinase still bound, per cent of control [14] was 100% and the kinase still bound, per cent of control [15] was 100%. For the same compound, the kinase still bound, per cent of control [16] was 100%, the kinase still bound, per cent of control [17] was 100% and the kinase still bound, per cent of control [18] was 100%. For the same compound, the kinase still bound, per cent of control [19] was 100%, the kinase still bound, per cent of control [20] was 100% and the kinase still bound, per cent of control [21] was 100%. For the same compound, the kinase still bound, per cent of control [22] was 100%, the kinase still bound, per cent of control [23] was 100% and the kinase still bound, per cent of control [24] was 100%. The kinase still bound, per cent of control [25] was 16%, the kinase still bound, per cent of control [26] was 7.6% and the kinase still bound, per cent of control [27] was 100%. It also gave a kinase still bound, per cent of control [28] of 100%, a kinase still bound, per cent of control [29] of 100% and a kinase still bound, per cent of control [30] of 100%. It also gave a kinase still bound, per cent of control [31] of 100%, a kinase still bound, per cent of control [32] of 100% and a kinase still bound, per cent of control [33] of 100%. For the same compound, the kinase still bound, per cent of control [34] was 100%.
